Reference: patent US20200345746A1, “Oxazine Derivative for Use in the Prevention of Alzheimer's Disease in at Risk Patents” (Novartis AG, priority 2016, published 2020)
Where two headings read alike, the source gives them in different places.

Columns and labels:
[1] = tested on: Aβ42; experiment: Acute PK/PD in APOE4-TR mice: Aβ42 in CSF; format: in vivo, mouse; conditions: for Average Aβ42 CSF ± SD: n = 6
Protocol: (§1) Compound 1 was formulated as a suspension. Vehicle or compound was given by oral administration in a volume of 10 ml/kg once. Vehicle: 0.1% Tween80 in 0.5% Methylcellulose in water.
Analysis of Aβ40 in Mouse Brain and Aβ40 and Aβ42 in CSF

[2] = in vivo; for AUCblood (AUC0-24 h): po
From the text: Blood samples were used to analyze whole-blood compound levels and were obtained either from tail-vein during the in-life part into EDTA tubes (CB300, Sarstedt, Germany) or from trunk blood at the day of necropsy into EDTA Eppendorf tubes (Milian S A, CatNoTOM-14, Fisher Scientific, Wohlen, Switzerland), or into serum tubes (CB300Z, Sarstedt, Nümbrecht, Germany).
Brain was removed immediately after decapitation, rinsed with saline and sectioned sagitally down the midline. The left half of the cerebellum was used to analyze compound level and was placed into a glass tube (Chromacol, 125×5-SV T051, Welwyn Garden City, United Kingdom), weighed and frozen in dry-ice, the left half of the forebrain (without olfactory bulb) was used for Aβ analysis, and was frozen on a metal plate on dry ice and placed into protein Lo-bind tube (003 0108.116, Eppendorf, Hamburg, Germany).
Ventral and dorsal skin were taken to analyze compound level, weighed and frozen on dry-ice.
Brain samples were mixed with 2 volumes of KH2PO4 buffer and homogenized using the Covaris® device. Skin samples were mixed with approx. 6-fold volumes of methanol/water and homogenized using a Precellys tube. Either 30 μL of blood, brain or skin homogenate were spiked with a structurally related internal standard and subsequently mixed with an at least 6-fold excess volume acetonitrile for protein precipitation. The supernatant was injected directly into the LC/MS/MS system for analysis.
For tissue exposure, only data at 4 and 24 h were available.

[3] = tested on: Aβ40; experiment: Acute PK/PD in APOE4-TR mice: Aβ40 in brain; format: in vivo, mouse; conditions: for Average Aβ40 brain ± SD: n = 6; for Aβ40 reduction vs vehicle, range over the doses: APOE4-TR mice, 3, 10 and 30 μmol/kg
Protocol: as §1
Frozen mouse forebrains were weighed and homogenized in 9 volumes (w/v) of ice-cold TBS-Complete (20 mM Tris-HCl pH 7.4, 137 mM NaCl, 1× Complete [Protease Inhibitor Cocktail Tablets: 1 836 145, Roche Diagnostics GmbH, Penzberg, Germany]) by sonication (90% duty cycle, output control 5, 40-55 pulses, [Sonifier 450, Branson]). After homogenization several 50 μl aliquots were prepared for analysis and were stored at −80° C.
Endogenous Aβ40 in mice was determined with the Meso Scale Discovery (MSD) 96-well MULTI-ARRAY human/rodent (4G8) Aβ40 Ultrasensitive Assay (#K110FTE-3, Meso Scale Discovery, Gaithersburg, USA). The assay was performed according to the manufacturer's instructions except for the calibration curve and the sample preparations. TritonX-100 (TX-100) soluble Aβ40 was extracted from forebrain with 1% TX-100 using a 50 μl aliquot of each 1:10 forebrain homogenate, mixed with 50 μl 2% TX-100 in TBS complete (20 mM Tris-HCl pH 7.4, 137 mM NaCl, 1× Complete [Protease Inhibitor Cocktail Tablets: 1 836 145, Roche Diagnostics GmbH, Penzberg Germany]) to reach a final concentration of 1% TX-100 and a 1:20 forebrain dilution. The samples were incubated for 15 min on ice and vortexed every 5 min. The samples were ultra-centrifuged (100000×g, 4° C., 15 min) and 50 μl of the clear supernatants were transferred to fresh tubes. For the Aβ40 assay the supernatants were further diluted 1:5 in 3% Blocker A solution (from kit) to a final forebrain dilution of 1:100 and applied to the plate.
The calibration curve was prepared in a corresponding dilution of 1% Blocker A solution spiked with synthetic Aβ1-40 peptide (1.56-100 pg/ml) except for non-transgenic mouse brain samples: In this case, the calibration curve was prepared in a correspondingly diluted APP knockout mouse forebrain spiked with synthetic Aβ1-40 peptide (1.56-100 pg/ml). For all samples and standards 25 μl were applied per well. For each determination duplicate wells were done. The mean values from the duplicate wells were used for calculations.

[4] = APOE4-TR mice, 30 μmol/kg acute

C[C@@]1(c2nc(NC(=O)c3ncc(C(F)(F)F)cc3Cl)ccc2F)CO[C@@](C)(C(F)(F)F)C(N)=N1 [Compound 1, N-(6-((3R,6R)-5-amino-3,6-dimethyl-6-(trifluoromethyl)-3,6-dihydro-2H-1,4-oxazin-3-yl)-5-fluoropyridin-2-yl)-3-chloro-5-(trifluoromethyl)picolinamide]
Mini AUEC (CSF Aβ42) ([1]; 3 μmol/kg acute): 38%
Average Aβ42 CSF ± SD ([1]; 3 μmol/kg acute p.o., 4 h): 0.0524 ± 0.02173 pmol/mL
Average Aβ42 CSF ± SD ([1]; 3 μmol/kg acute p.o., 24 h): 0.09317 ± 0.05304 pmol/mL
% reduction vs vehicle (CSF Aβ42) ([1]; 3 μmol/kg acute, 4 h): 55%
% reduction vs vehicle (CSF Aβ42) ([1]; 3 μmol/kg acute, 24 h): 21%
Mini AUEC (CSF Aβ42) ([1]; 10 μmol/kg acute): 50%
Average Aβ42 CSF ± SD ([1]; 10 μmol/kg acute p.o., 4 h): 0.02318 ± 0.00446 pmol/mL
Average Aβ42 CSF ± SD ([1]; 10 μmol/kg acute p.o., 24 h): 0.09438 ± 0.09019 pmol/mL
% reduction vs vehicle (CSF Aβ42) ([1]; 10 μmol/kg acute, 4 h): 80%
% reduction vs vehicle (CSF Aβ42) ([1]; 10 μmol/kg acute, 24 h): 20%
Mini AUEC (CSF Aβ42) ([1]; 30 μmol/kg acute): 81%
Average Aβ42 CSF ± SD ([1]; 30 μmol/kg acute p.o., 4 h): 0.0080 ± 0.00395 pmol/mL
Average Aβ42 CSF ± SD ([1]; 30 μmol/kg acute p.o., 24 h): 0.03717 ± 0.02438 pmol/mL
% reduction vs vehicle (CSF Aβ42) ([1]; 30 μmol/kg acute, 4 h): 93%
% reduction vs vehicle (CSF Aβ42) ([1]; 30 μmol/kg acute, 24 h): 68%
AUCbrain (AUC0-24 h) ([2]; C57BL/6, mouse, 8 umol/kg): 11.61 µmol·h/kg
AUCbrain (AUC0-24 h) ([2]; C57BL/6, mouse, 50 umol/kg): 88.93 µmol·h/kg
reduction of blood exposure, last day vs beginning of experiment ([2]; C57BL/6, mouse, 8 weeks): around 35%
AUCblood (AUC0-24 h) ([2]; C57BL/6, mouse, 8 umol/kg): 3.49 µM·h
AUCblood (AUC0-24 h) ([2]; C57BL/6, mouse, 50 umol/kg): 18.53 µM·h
rel. AUCdorsal skin ([2]; mouse): 12.6
rel. AUCventral skin ([2]; mouse): 16.8
AUCdorsal skin (AUC0-24 h) ([2]; mouse, 8 umol/kg): 54.3 µmol·h/kg
AUCventral skin (AUC0-24 h) ([2]; mouse, 8 umol/kg): 78.29 µmol·h/kg
AUCdorsal skin (AUC0-24 h) ([2]; mouse, 50 umol/kg): 271.6 µmol·h/kg
AUCventral skin (AUC0-24 h) ([2]; mouse, 50 umol/kg): 308.7 µmol·h/kg
Mini AUEC (brain Aβ40) ([3]; APOE4-TR mice, 3 μmol/kg acute): 32%
Average Aβ40 brain ± SD ([3]; APOE4-TR mice, 3 μmol/kg acute p.o., 4 h): 0.114 ± 0.024 pmol/g
Average Aβ40 brain ± SD ([3]; APOE4-TR mice, 3 μmol/kg acute p.o., 24 h): 0.160 ± 0.033 pmol/g
% reduction vs vehicle (brain Aβ40) ([3]; APOE4-TR mice, 3 μmol/kg acute, 4 h): 43%
% reduction vs vehicle (brain Aβ40) ([3]; APOE4-TR mice, 3 μmol/kg acute, 24 h): 20%
Mini AUEC (brain Aβ40) ([3]; APOE4-TR mice, 10 μmol/kg acute): 47%
Average Aβ40 brain ± SD ([3]; APOE4-TR mice, 10 μmol/kg acute p.o., 4 h): 0.074 ± 0.014 pmol/g
Average Aβ40 brain ± SD ([3]; APOE4-TR mice, 10 μmol/kg acute p.o., 24 h): 0.139 ± 0.041 pmol/g
% reduction vs vehicle (brain Aβ40) ([3]; APOE4-TR mice, 10 μmol/kg acute, 4 h): 63%
% reduction vs vehicle (brain Aβ40) ([3]; APOE4-TR mice, 10 μmol/kg acute, 24 h): 31%
Mini AUEC (brain Aβ40) [3, 4]: 72%
maximal effect on Aβ reduction in the brain [3, 4]: > 70%
Average Aβ40 brain ± SD ([3]; APOE4-TR mice, 30 μmol/kg acute p.o., 4 h): 0.046 ± 0.006 pmol/g
Average Aβ40 brain ± SD ([3]; APOE4-TR mice, 30 μmol/kg acute p.o., 24 h): 0.068 ± 0.021 pmol/g
% reduction vs vehicle (brain Aβ40) ([3]; APOE4-TR mice, 30 μmol/kg acute, 4 h): 77%
% reduction vs vehicle (brain Aβ40) ([3]; APOE4-TR mice, 30 μmol/kg acute, 24 h): 66%
Aβ40 reduction vs vehicle, range over the doses ([3]; 4h): 43-77%
Aβ40 reduction vs vehicle, range over the doses ([3]; 24h): 20-66%
